Earlier results in US20250208121A1, “MAMMALIAN PER- AND POLYFLUORINATED-ALKYL COMPOUND (PFAS) BINDING PROTEINS AND USES THEREOF” (Allonnia, LLC, priority 2023, published 2025).

Details: in humans; previous research

Compound	half-life
O=S(=O)(O)C(F)(F)C(F)(F)C(F)(F)C(F)(F)C(F)(F)C(F)(F)C(F)(F)C(F)(F)F [PFOS, perfluorooctanesulfonic acid]	approximately 5.4 years
O=C(O)C(F)(F)C(F)(F)C(F)(F)C(F)(F)C(F)(F)C(F)(F)C(F)(F)F [PFOA, perfluorooctanoic acid]	~3.8 years
